Patent publication US20240390484A1 (priority 2022, published 2024)
Read-outs that look alike come from different tables or passages of the source.

Key:
[1] = Stability of blank-LNP at 2-8° C. (particle size, PDI); type: physicochemical; details: blank-LNP 48/40.5/10/1.5 mol %
Procedure: (§1) Lipid nanoparticles (LNPs) were formed or formulated by rapid mixing of an ethanol phase and an aqueous phase using a microfluidic device. The aqueous phase included a 50 mM citrate buffer (pH 5.5). The ethanol phase included an ionizable lipid (as described herein), cholesterol (Jiangsu Southeast Nanomaterials), 1,2-diastearoyl-sn-glycero-3-phosphocholine (DSPC) (Jiangsu Southeast Nanomaterials) and 1,2-dimyristoyl-rac-glycero-3-methoxypolyethylene glycol-2000 (DMG-PEG2000) (SINOPEG). A series of ionizable lipids were evaluated. These four lipid components were mixed at defined molar ratios in ethanol, for instance, at a molar ratio of 48:40.5:10:1.5 (ionizable lipid:cholesterol:DSPC:DMG-PEG2000). The generated LNP particles were purified in citrate buffer (containing sucrose) and characterized with respect to particle size, polydispersity index (PDI) and ionizable lipid concentration. The LNP solution was then diluted to the target concentration and stored at 2-8° C.
Each generated blank-LNP formulation was added to and mixed with lyophilized S2P RNA, altogether yielding a series of “ready-to-use” S2P RNA test items containing the different ionizable lipids. The pharmaceutical characteristics (Table 3) and in vitro transfection efficiency (Table 4) of these “ready-to-use” RNA test items were compared head-to-head. In parallel, the stability profiles of these […] blank-LNP formulations (i.e. without RNA complexation) were assessed at 2-8° C. (see Table 5).
The generated fourteen blank-LNP formulations were characterized in terms of particle size and PDI, both at the end of manufacturing (T=0) and 8-week storage at 2-8° C. […] (defined as size increase ≤20 nm in 8 weeks), namely DMG-PEG2000 between at least 1-4 mol %, DSPC between at least 5-20 mol %, ionizable lipid between at least 30-70 mol % and cholesterol between at least 18.5-58.5 mol %.

Vero E6 cells = type: cell-based; details: 4 μg
[2] = Particle size and polydispersity index (PDI) by Dynamic Light Scattering; type: physicochemical; details: for “Ready-to-use” S2P RNA formulation PDI / “Ready-to-use” S2P RNA formulation Size: 48/40.5/10/1.5 mol %, blank-LNP added to lyophilized S2P RNA (55 ug/vial), N/P 7
Procedure: as §1
(§2) In the case of a filled LNP, for example, an LNP-encapsulated S-2P RNA liquid drug product, the preparation protocol is essentially the same, except that it was an aqueous solution of S-2P RNA in citrate buffer pH 5-6 that constitutes the aqueous phase for LNP formation. The LNP-encapsulated RNA formulation is also referred to as “RNA-LNP” in this disclosure. Regarding characterization, particle size and polydispersity index (PDI) of the RNA-LNP were determined by Dynamic Light Scattering (DLS); RNA encapsulation efficiency and concentration were determined by means of Ribogreen® assay and RNA purity was determined by agarose gel electrophoresis.
(§3) The “ready-to-use” RNA product was manufactured by transferring a predetermined amount of already formed LNP in solution to a sealed vial containing the lyophilized RNA composition, followed by mixing at room temperature. The amount of LNP added per vial (e.g., 30-100 μg RNA per vial) was determined based on the molar ionizable lipid:RNA (N/P) molar ratio of 7. In this disclosure, “ready-to-use” S-2P RNA formulations (also referred to as “LNP(S-2P RNA)”) containing 30-100 μg/mL S-2P RNA were prepared, and then characterized with respect to particle size, polydispersity index, as well as RNA concentration, complexation efficiency, and purity using the same methods as described above in Example 3.

[3] = RNA encapsulation/complexation efficiency by Ribogreen assay; type: physicochemical; details: for “Ready-to-use” S2P RNA formulation RNA complexation efficiency: 48/40.5/10/1.5 mol %, blank-LNP added to lyophilized S2P RNA (55 ug/vial), N/P 7
Procedure: as §2, §3

BHK-21 cells = type: cell-based; details: 4 μg
[4] = ionizable lipid/Chol/DSPC/DMG-PEG 20/57.0/20/3.0 mol %
[5] = ionizable lipid/Chol/DSPC/DMG-PEG 30/55.0/12/3.0 mol %
[6] = ionizable lipid/Chol/DSPC/DMG-PEG 40/48.5/10/1.5 mol %
[7] = ionizable lipid/Chol/DSPC/DMG-PEG 45/43.5/10/1.5 mol %
[8] = ionizable lipid/Chol/DSPC/DMG-PEG 50/38.5/10/1.5 mol %
[9] = ionizable lipid/Chol/DSPC/DMG-PEG 60/30.0/8.5/1.5 mol %
[10] = ionizable lipid/Chol/DSPC/DMG-PEG 70/22.5/6.0/1.5 mol %
[11] = blank-LNP, 48/40.5/10/1.5 mol % ionizable lipid/cholesterol/DSPC/DMG-PEG
[12] = ionizable lipid/Chol/DSPC/DMG-PEG 70/22.5/6/1.5 mol %
[13] = ready-to-use S2P RNA, 48 hours post transfection, 48/40.5/10/1.5 mol %

With `CCCCCCCCCOC(=O)CCCCCCCOc1ccc(OCCCCCCCC(=O)OC(CCCCCCCC)CCCCCCCC)cc1COC(=O)CCCN(C)C` the “PDI, T = 1 month” value [1] was 0.09, the “Size, T = 1 month” value [1] was 88 nm and the “Change in size (nm) vs. T0, T = 2 weeks” value [1] was −9 nm. The “PDI, T = 2 weeks” value [1] was 0.06, the “Size, T = 2 weeks” value [1] was 79 nm and the “PDI, T = 0” value [1] was 0.13. For the same molecule, the “Size, T = 0” value [1] was 88 nm, the “RBD expression in Vero E6 cells” value (Vero E6 cells; [4]) was “<LOD” and the “RBD expression in Vero E6 cells” value (Vero E6 cells; [5]) was 0.129 ng/mL. The “RBD expression in Vero E6 cells” value (Vero E6 cells; [6]) was 1.204 ng/mL, the “RBD expression in Vero E6 cells” value (Vero E6 cells; [7]) was 1.842 ng/mL and the “RBD expression in Vero E6 cells” value (Vero E6 cells; [8]) was 1.633 ng/mL. For the same molecule, the “RBD expression in Vero E6 cells” value (Vero E6 cells; [9]) was 1.239 ng/mL, the “RBD expression in Vero E6 cells” value (Vero E6 cells; [10]) was 0.0939 ng/mL and the ““Ready-to-use” S2P RNA formulation PDI” value [2] was 0.12. The ““Ready-to-use” S2P RNA formulation Size” value [2] was 173 nm, the “Blank-LNP PDI” value [2, 11] was 0.13 and the “Blank-LNP Size” value [2, 11] was 88 nm. For the same molecule, the “Blank-LNP PDI” value [2, 4] was 0.18, the “Blank-LNP Size” value [2, 4] was 82 nm and the ““Ready-to-use” S2P RNA PDI” value [2, 4] was 0.21. For the same molecule, the ““Ready-to-use” S2P RNA Size” value [2, 4] was 157 nm, the “Blank-LNP PDI” value [2, 5] was 0.2 and the “Blank-LNP Size” value [2, 5] was 75 nm. For the same molecule, the ““Ready-to-use” S2P RNA PDI” value [2, 5] was 0.21, the ““Ready-to-use” S2P RNA Size” value [2, 5] was 125 nm and the “Blank-LNP PDI” value [2, 6] was 0.12. For the same molecule, the “Blank-LNP Size” value [2, 6] was 90 nm, the ““Ready-to-use” S2P RNA PDI” value [2, 6] was 0.18 and the ““Ready-to-use” S2P RNA Size” value [2, 6] was 169 nm. The “Blank-LNP PDI” value [2, 7] was 0.04, the “Blank-LNP Size” value [2, 7] was 87 nm and the ““Ready-to-use” S2P RNA PDI” value [2, 7] was 0.12. The ““Ready-to-use” S2P RNA Size” value [2, 7] was 151 nm, the “Blank-LNP PDI” value [2, 8] was 0.11 and the “Blank-LNP Size” value [2, 8] was 83 nm. For the same molecule, the ““Ready-to-use” S2P RNA PDI” value [2, 8] was 0.13, the ““Ready-to-use” S2P RNA Size” value [2, 8] was 147 nm and the “Blank-LNP PDI” value [2, 9] was 0.15. The “Blank-LNP Size” value [2, 9] was 76 nm, the ““Ready-to-use” S2P RNA PDI” value [2, 9] was 0.13 and the ““Ready-to-use” S2P RNA Size” value [2, 9] was 143 nm. The “Blank-LNP PDI” value [2, 12] was 0.21, the “Blank-LNP Size” value [2, 12] was 77 nm and the ““Ready-to-use” S2P RNA PDI” value [2, 12] was 0.16. The ““Ready-to-use” S2P RNA Size” value [2, 12] was 146 nm, the ““Ready-to-use” S2P RNA formulation RNA complexation efficiency” value [3] was 42% and the ““Ready-to-use” S2P RNA, RNA complex. efficiency” value [3, 4] was 54%. For the same molecule, the ““Ready-to-use” S2P RNA, RNA complex. efficiency” value [3, 5] was 61%, the ““Ready-to-use” S2P RNA, RNA complex. efficiency” value [3, 6] was 51% and the ““Ready-to-use” S2P RNA, RNA complex. efficiency” value [3, 7] was 50%. For the same molecule, the ““Ready-to-use” S2P RNA, RNA complex. efficiency” value [3, 8] was 48%, the ““Ready-to-use” S2P RNA, RNA complex. efficiency” value [3, 9] was 44% and the ““Ready-to-use” S2P RNA, RNA complex. efficiency” value [3, 12] was 40%. The “RBD expression in BHK-21 cells” value (BHK-21 cells; [4]) was 0.082 ng/mL, the “RBD expression in BHK-21 cells” value (BHK-21 cells; [5]) was 1.655 ng/mL and the “RBD expression in BHK-21 cells” value (BHK-21 cells; [6]) was 1.517 ng/mL. The “RBD expression in BHK-21 cells” value (BHK-21 cells; [7]) was 2.090 ng/mL, the “RBD expression in BHK-21 cells” value (BHK-21 cells; [8]) was 1.887 ng/mL and the “RBD expression in BHK-21 cells” value (BHK-21 cells; [9]) was 0.812 ng/mL. The “RBD expression in BHK-21 cells” value (BHK-21 cells; [10]) was “<LOD”.

In the case of `CCCCCCCCCCC(CCCCCCCCCC)C(=O)OCCCCCCOc1ccc(OCCCCCCOC(=O)C(CCCCCCCCCC)CCCCCCCCCC)c(COC(=O)CCCN(C)C)c1` [Lipid #8], the “PDI, T = 1 month” value [1] is reported as 0.17, the “Size, T = 1 month” value [1] is reported as 90 nm and the “Change in size (nm) vs. T0, T = 2 weeks” value [1] is reported as −3 nm. For the same molecule, the “PDI, T = 2 weeks” value [1] was 0.07, the “Size, T = 2 weeks” value [1] was 83 nm and the “PDI, T = 0” value [1] was 0.13. The “Size, T = 0” value [1] was 86 nm, the “RBD expression in Vero E6 cells” value (Vero E6 cells; [13]) was “<LOD” and the ““Ready-to-use” S2P RNA formulation PDI” value [2] was 0.11. The ““Ready-to-use” S2P RNA formulation Size” value [2] was 130 nm, the “Blank-LNP PDI” value [2, 11] was 0.13 and the “Blank-LNP Size” value [2, 11] was 86 nm. The ““Ready-to-use” S2P RNA formulation RNA complexation efficiency” value [3] was 34% and the “RBD expression in BHK-21 cells” value (BHK-21 cells; [13]) was “<LOD”.

In the case of `CCCCCC/C=C/COC(=O)CCCCCCCCC(CCCCCCCCC(=O)OC/C=C/CCCCCC)OC(=O)CCCN(C)C` [Lipid #9], the “Change in size (nm) vs. T0, T = 1 month” value [1] is reported as “+22 nm”, the “PDI, T = 1 month” value [1] is reported as 0.10 and the “Size, T = 1 month” value [1] is reported as 229 nm. For the same molecule, the “Change in size (nm) vs. T0, T = 2 weeks” value [1] was “+7 nm”, the “PDI, T = 2 weeks” value [1] was 0.05 and the “Size, T = 2 weeks” value [1] was 214 nm. For the same molecule, the “PDI, T = 0” value [1] was 0.09, the “Size, T = 0” value [1] was 207 nm and the “RBD expression in Vero E6 cells” value (Vero E6 cells; [13]) was 0.16 ng/mL. For the same molecule, the ““Ready-to-use” S2P RNA formulation PDI” value [2] was 0.18, the ““Ready-to-use” S2P RNA formulation Size” value [2] was 280 nm and the “Blank-LNP PDI” value [2, 11] was 0.09. For the same molecule, the “Blank-LNP Size” value [2, 11] was 207 nm, the ““Ready-to-use” S2P RNA formulation RNA complexation efficiency” value [3] was 34% and the “RBD expression in BHK-21 cells” value (BHK-21 cells; [13]) was 0.50 ng/mL.

In the case of `CC/C=C/CCCC(CCC/C=C/CC)OC(=O)CCCCCCCC(CCCCCCCC(=O)OC/C=C/CCCCCC)COC(=O)CCCN(C)C` (stereo not drawn) [Lipid #10], the “Change in size (nm) vs. T0, T = 1 month” value [1] is reported as “+29 nm”, the “PDI, T = 1 month” value [1] is reported as 0.21 and the “Size, T = 1 month” value [1] is reported as 120 nm. The “Change in size (nm) vs. T0, T = 2 weeks” value [1] was “+16 nm”, the “PDI, T = 2 weeks” value [1] was 0.11 and the “Size, T = 2 weeks” value [1] was 107 nm. For the same molecule, the “PDI, T = 0” value [1] was 0.05, the “Size, T = 0” value [1] was 91 nm and the “RBD expression in Vero E6 cells” value (Vero E6 cells; [13]) was 0.25 ng/mL. For the same molecule, the ““Ready-to-use” S2P RNA formulation PDI” value [2] was 0.21, the ““Ready-to-use” S2P RNA formulation Size” value [2] was 204 nm and the “Blank-LNP PDI” value [2, 11] was 0.05. For the same molecule, the “Blank-LNP Size” value [2, 11] was 91 nm, the ““Ready-to-use” S2P RNA formulation RNA complexation efficiency” value [3] was 34% and the “RBD expression in BHK-21 cells” value (BHK-21 cells; [13]) was 0.33 ng/mL.
